Reference: PubChem BioAssay AID1919006 (Molecular Pharmacology Branch, DTP, NCI, 2023)
pIC50: −log10 of the molar value.

System: 885512-296-R-J2-PDC complex spheroid growth, % test/control
Test: Anticancer human tumor 885512-296-R-J2-PDC patient-derived breast carcinoma cell line growth inhibition [AhR]
Conditions: for pIC50: curve of first compound; for viability, T/C: stronger effect = lower value
How it was run: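 Complex tumor spheroids co-cultured with HUVEC and human MSC stroma; AhR antagonists tested in combination with standard-of-care and investigational agents. Top concentration at or near clinical Cmax (else 10 microM), half-log dilutions; growth expressed as percent test/control.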

[1] = second compound 0.1 µM, first compound 0.0316 µM
[2] = second compound 0.1 µM, first compound 0.1 µM
[3] = second compound 0.316 µM, first compound 0.0316 µM
[4] = second compound 0.316 µM, first compound 0.1 µM
[5] = second compound 1 µM, first compound 0.0316 µM
[6] = second compound 1 µM, first compound 0.1 µM
[7] = second compound 3.16 µM, first compound 0.0316 µM
[8] = second compound 3.16 µM, first compound 0.1 µM
[9] = second compound 10 µM, first compound 0.0316 µM
[10] = second compound 10 µM, first compound 0.1 µM
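Also: spheroids exposed to compounds for seven days.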

Structure (SMILES): Nc1ncn(C2CC(O)C(CO)S2)c(=O)n1 (stereo not given) + CC(CO)NC(=O)c1cc(-c2ccc(Cl)cc2)nn(-c2cnn(C)c2)c1=O
- pIC50 (second compound 0.1 µM): 6.56
- pIC50 (second compound 0.316 µM): < 6.52
- pIC50 (second compound 1 µM): < 6.52
- pIC50 (second compound 3.16 µM): 6.63
- pIC50 (second compound 10 µM): 6.56
- viability, T/C (second compound 0.1 µM, first compound 0.000949 µM): 98.8%
- viability, T/C (second compound 0.1 µM, first compound 0.003 µM): 117%
- viability, T/C (second compound 0.1 µM, first compound 0.00949 µM): 108%
- viability, T/C (second compound 0.1 µM, first compound 0.03 µM): 125%
- viability, T/C (second compound 0.1 µM, first compound 0.0949 µM): 77%
- viability, T/C (second compound 0.1 µM, first compound 0.3 µM): 47.5%
- viability, T/C (second compound 0.316 µM, first compound 0.000949 µM): 106%
- viability, T/C (second compound 0.316 µM, first compound 0.003 µM): 92.9%
- viability, T/C (second compound 0.316 µM, first compound 0.00949 µM): 146%
- viability, T/C (second compound 0.316 µM, first compound 0.03 µM): 111%
- viability, T/C (second compound 0.316 µM, first compound 0.0949 µM): 80.5%
- viability, T/C (second compound 0.316 µM, first compound 0.3 µM): 54.2%
- viability, T/C (second compound 1 µM, first compound 0.000949 µM): 106%
- viability, T/C (second compound 1 µM, first compound 0.003 µM): 104%
- viability, T/C (second compound 1 µM, first compound 0.00949 µM): 113%
- viability, T/C (second compound 1 µM, first compound 0.03 µM): 127%
- viability, T/C (second compound 1 µM, first compound 0.0949 µM): 81.4%
- viability, T/C (second compound 1 µM, first compound 0.3 µM): 54.1%
- viability, T/C (second compound 3.16 µM, first compound 0.000949 µM): 97.9%
- viability, T/C (second compound 3.16 µM, first compound 0.003 µM): 101%
- viability, T/C (second compound 3.16 µM, first compound 0.00949 µM): 112%
- viability, T/C (second compound 3.16 µM, first compound 0.03 µM): 87.2%
- viability, T/C (second compound 3.16 µM, first compound 0.0949 µM): 72.2%
- viability, T/C (second compound 3.16 µM, first compound 0.3 µM): 43.9%
- viability, T/C (second compound 10 µM, first compound 0.000949 µM): 101%
- viability, T/C (second compound 10 µM, first compound 0.003 µM): 96.3%
- viability, T/C (second compound 10 µM, first compound 0.00949 µM): 100%
- viability, T/C (second compound 10 µM, first compound 0.03 µM): 93.1%
- viability, T/C (second compound 10 µM, first compound 0.0949 µM): 70.8%
- viability, T/C (second compound 10 µM, first compound 0.3 µM): 48.2%

Structure (SMILES): COc1cc(C2c3cc4c(cc3C(OC3OC5COC(C)OC5C(O)C3O)C3COC(=O)C23)OCO4)cc(OC)c1O (stereo not given) + Cc1cncc(-c2nc(NCCc3c[nH]c4ccccc34)c3ncn(C(C)C)c3n2)c1
- pIC50 (second compound 0.1 µM): 6.26
- pIC50 (second compound 0.316 µM): 6.22
- pIC50 (second compound 1 µM): 6.40
- pIC50 (second compound 3.16 µM): 6.77
- pIC50 (second compound 10 µM): > 7.50
- viability, T/C [1]: 104%
- viability, T/C [2]: 92.2%
- viability, T/C (second compound 0.1 µM, first compound 0.316 µM): 75%
- viability, T/C (second compound 0.1 µM, first compound 1 µM): 23.7%
- viability, T/C (second compound 0.1 µM, first compound 3.16 µM): 10.6%
- viability, T/C (second compound 0.1 µM, first compound 10 µM): 8.99%
- viability, T/C [3]: 104%
- viability, T/C [4]: 101%
- viability, T/C (second compound 0.316 µM, first compound 0.316 µM): 72.8%
- viability, T/C (second compound 0.316 µM, first compound 1 µM): 32.1%
- viability, T/C (second compound 0.316 µM, first compound 3.16 µM): 10.5%
- viability, T/C (second compound 0.316 µM, first compound 10 µM): 8.12%
- viability, T/C [5]: 90.2%
- viability, T/C [6]: 78%
- viability, T/C (second compound 1 µM, first compound 0.316 µM): 59.3%
- viability, T/C (second compound 1 µM, first compound 1 µM): 17.5%
- viability, T/C (second compound 1 µM, first compound 3.16 µM): 11.2%
- viability, T/C (second compound 1 µM, first compound 10 µM): 8.42%
- viability, T/C [7]: 64.9%
- viability, T/C [8]: 55.4%
- viability, T/C (second compound 3.16 µM, first compound 0.316 µM): 42%
- viability, T/C (second compound 3.16 µM, first compound 1 µM): 15.6%
- viability, T/C (second compound 3.16 µM, first compound 3.16 µM): 10.7%
- viability, T/C (second compound 3.16 µM, first compound 10 µM): 9.12%
- viability, T/C [9]: 18.5%
- viability, T/C [10]: 17.6%
- viability, T/C (second compound 10 µM, first compound 0.316 µM): 14.2%
- viability, T/C (second compound 10 µM, first compound 1 µM): 14.1%
- viability, T/C (second compound 10 µM, first compound 3.16 µM): 10.2%
- viability, T/C (second compound 10 µM, first compound 10 µM): 6.83%

Structure (SMILES): Cn1ncnc1C1c2n[nH]c(=O)c3cc(F)cc(c23)NC1c1ccc(F)cc1 (stereo not given) + Cc1ccccc1N=Nc1ccc(NC(=O)c2ccnn2C)c(C)c1
- pIC50 (second compound 0.1 µM): 7.04
- pIC50 (second compound 0.316 µM): < 7.00
- pIC50 (second compound 1 µM): < 7.00
- pIC50 (second compound 3.16 µM): < 7.00
- pIC50 (second compound 10 µM): > 9.50
- viability, T/C (second compound 0.1 µM, first compound 0.000316 µM): 85.6%
- viability, T/C (second compound 0.1 µM, first compound 0.001 µM): 99.2%
- viability, T/C (second compound 0.1 µM, first compound 0.00316 µM): 89.9%
- viability, T/C (second compound 0.1 µM, first compound 0.01 µM): 93%
- viability, T/C [1]: 68.7%
- viability, T/C [2]: 48.4%
- viability, T/C (second compound 0.316 µM, first compound 0.000316 µM): 110%
- viability, T/C (second compound 0.316 µM, first compound 0.001 µM): 94.5%
- viability, T/C (second compound 0.316 µM, first compound 0.00316 µM): 86%
- viability, T/C (second compound 0.316 µM, first compound 0.01 µM): 87.7%
- viability, T/C [3]: 76.3%
- viability, T/C [4]: 54.9%
- viability, T/C (second compound 1 µM, first compound 0.000316 µM): 98.5%
- viability, T/C (second compound 1 µM, first compound 0.001 µM): 82.9%
- viability, T/C (second compound 1 µM, first compound 0.00316 µM): 96.6%
- viability, T/C (second compound 1 µM, first compound 0.01 µM): 83.9%
- viability, T/C [5]: 67.5%
- viability, T/C [6]: 53.8%
- viability, T/C (second compound 3.16 µM, first compound 0.000316 µM): 77.6%
- viability, T/C (second compound 3.16 µM, first compound 0.001 µM): 87.5%
- viability, T/C (second compound 3.16 µM, first compound 0.00316 µM): 93%
- viability, T/C (second compound 3.16 µM, first compound 0.01 µM): 83.5%
- viability, T/C [7]: 67.4%
- viability, T/C [8]: 52.1%
- viability, T/C (second compound 10 µM, first compound 0.000316 µM): 50.1%
- viability, T/C (second compound 10 µM, first compound 0.001 µM): 49.9%
- viability, T/C (second compound 10 µM, first compound 0.00316 µM): 46.5%
- viability, T/C (second compound 10 µM, first compound 0.01 µM): 47.2%
- viability, T/C [9]: 50.2%
- viability, T/C [10]: 44.2%
